Several values for one entry are separate records, joined by “and”; a condition that tells them apart may be missing. Identical values can stand only once. Like-named read-outs stand apart in the source and are kept apart here.
Molecular target: T1, DrOTOP1 (Danio rerio, UniProt Q7ZWK8)
T1 construct: A previously generated codon-optimized full-length DrOTOP1[8]; (UniProt: Q7ZWK8) construct; expressed in transfected cells; host or cells: HEK-293 (CRL-1573, ATCC)
T1 sequence (Q7ZWK8 1-586): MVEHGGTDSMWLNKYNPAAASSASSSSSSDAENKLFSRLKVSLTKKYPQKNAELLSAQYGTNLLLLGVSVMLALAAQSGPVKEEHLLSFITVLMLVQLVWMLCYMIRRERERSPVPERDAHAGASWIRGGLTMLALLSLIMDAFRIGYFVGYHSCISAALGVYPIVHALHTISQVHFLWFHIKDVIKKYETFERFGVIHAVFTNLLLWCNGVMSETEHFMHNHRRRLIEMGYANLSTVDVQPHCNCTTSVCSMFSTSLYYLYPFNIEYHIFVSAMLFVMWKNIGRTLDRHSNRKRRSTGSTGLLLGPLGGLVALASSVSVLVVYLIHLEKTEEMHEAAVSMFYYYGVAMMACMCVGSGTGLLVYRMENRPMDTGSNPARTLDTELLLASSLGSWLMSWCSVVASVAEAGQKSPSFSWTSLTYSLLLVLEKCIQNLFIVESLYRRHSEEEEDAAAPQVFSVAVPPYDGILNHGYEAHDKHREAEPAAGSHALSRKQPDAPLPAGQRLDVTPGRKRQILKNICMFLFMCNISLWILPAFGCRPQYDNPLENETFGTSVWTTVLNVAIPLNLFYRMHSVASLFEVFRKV
Test: Whole-cell patch-clamp, inhibition of acid-evoked currents, WT DrOTOP1 expressed in HEK-293 cells
Type: cell-based, zebrafish (Danio rerio)
Set-up: key to inhibition of acid-evoked current, mean (Mean 1): % inhibition = ((I2peak-I1)/I2peak)*100
Settings: for inhibition at 200 µM: read-out: Inhibition of currents
Text: The 50 molecules identified were individually tested by whole-cell patch-clamp electrophysiology for effects on DrOTOP1 expressed in human embryonic kidney (HEK)−293 cells. […] This approach enabled us to observe the on- and off-responses of each compound. To quantify the effect of each compound, we compared the current magnitude during compound application immediately before wash-off, to the peak inward current following its removal (Supplementary Fig. 2A).
HEK-293 cells (CRL-1573, ATCC) were cultured in DMEM (Thermofisher 11995073) containing 10% fetal bovine serum (Life Technology 16000044) and Penicillin-Streptomycin (100 I.U./mL) and (100 µg/mL), respectively. Cells were transfected with WT DrOTOP1 or mutant DrOTOP1 channels in 35 mm petri dishes, with ~ 500 ng DNA and 2 μL TransIT-LT1 transfection reagent (Mirus Bio Corporation, Cat # MIR2300) following the manufacturer’s protocol. All constructs were subcloned into a pcDNA3.1 vector that adds an N-terminal fusion tag consisting of an octahistidine tag followed by eGFP, a Gly-Thr-Gly-Thr linker and a 3C protease cleavage site ([…]) followed by WT DrOTOP1, WT mOTOP1, WT hOTOP1, or mutated DrOTOP1. Point mutations were generated via In-Fusion Cloning (Takara) using single-stranded DNA primers generated through IDT and sequence confirmed by Sanger sequencing (GeneWiz).
Whole-cell patch-clamp recording was performed as previously described[6],[22],[25]. Recordings were made with an Axopatch 200B amplifier, digitized with a Digidata 1322a 16-bit data acquisition system, acquired with pClamp 8.2 and analyzed with Clampfit 10 (Molecular Devices). Recordings were sampled at 5 kHz and filtered at 1 kHz. Patch Pipettes with resistance of […] were fabricated from borosilicate glass, and only recordings with a giga-Ohm seal were used in analysis. Membrane potential was held at −80 mV for the duration of recordings. At the beginning of recordings and between, cells were washed with Tyrode’s solution (see below). Once a giga-Ohm seal was reached, cells were lifted and placed in front of microcapillary tubes controlled by a Fast-Step perfusion system (Warner Instruments) so that extracellular solutions could be rapidly exchanged during each experiment.
Standard Tyrode’s solution consisted of 145 mM NaCl, 5 mM KCl, MgCl2, 2 mM CaCl2, 20 mM D-Glucose, and 10 mM HEPES (for pH 7.4). All other extracellular patch-clamp solutions contained 160 mM NMDG-Cl, 2 mM CaCl2, and the following buffers: 10 mM HEPES (for pH 7.4), 10 mM MES (for pH 6.5-5.5), 10 mM CHES for pH 10, and 10 mM HomoPIPES for (pH 5.0). pH adjusted with HCl. […] The pipette contained intracellular solution made up of 120 mM Cs-aspartate, 15 mM CsCl, 2 mM Mg-ATP, 5 mM EGTA, 2.4 mM CaCl2 (100 nM free Ca^2+), and 10 mM HEPES with a pH of 7.3. All extracellular solution osmolarity was adjusted to 300 mOsm and intracellular osmolarity was adjusted to 290 mOsm.
All data are presented as mean ± SEM unless otherwise noted, and each data point represents an independent replicant. Inhibition of compounds was quantified as ((I2peak-I1)/(I2peak))*100, where I1 is the current immediately before wash-off and I2peak is the maximum recovered current (Supplementary Fig. 2). Hill coefficients were determined by the following equation: Y = Bmax*X^h/(Kd^h + X^h).

[1] = 10 µM, pH 5, WT DrOTOP1, single cells
[2] = 10 µM, pH 6, WT DrOTOP1, single cells
[3] = 30 µM, pH 5, WT DrOTOP1, single cells
[4] = 30 µM, pH 6, WT DrOTOP1, single cells
[5] = 100 µM, pH 5, WT DrOTOP1, single cells
[6] = 100 µM, pH 6, WT DrOTOP1, single cells
[7] = 200 µM, pH 5.5, WT DrOTOP1, dose-response, single cells
[8] = 300 µM, pH 5.5, WT DrOTOP1, single cells
[9] = HEK293, pH 5, 30 µM, pH 5, WT DrOTOP1, single cells
[10] = HEK293, pH 5.5, 200 µM, pH 5.5, WT DrOTOP1, dose-response, single cells
[11] = HEK293, pH 5.5, 300 µM, pH 5.5, WT DrOTOP1, single cells
[12] = HEK293, pH 6, 10 µM, pH 6, WT DrOTOP1, single cells
[13] = HEK293, pH 6, 30 µM, pH 6, WT DrOTOP1, single cells
[14] = HEK293, pH 6, 100 µM, pH 6, WT DrOTOP1, single cells

| SMILES | Inhibition of currents [1] | Inhibition of currents [2] | Inhibition of currents [3] | Inhibition of currents [4] | Inhibition of currents [5] | Inhibition of currents [6] | Inhibition of currents [7] | Inhibition of currents [8] | inhibition at 30 µM [9] | inhibition at 200 µM [10] | inhibition at 300 µM [11] | inhibition at 10 µM [12] | inhibition at 30 µM [13] | inhibition at 100 µM [14] | Hill coefficient (pH 5.0, WT DrOTOP1) | IC50 (pH 5.0, WT DrOTOP1) | Hill coefficient (pH 5.5, WT DrOTOP1) | IC50 (pH 5.5, WT DrOTOP1) | Hill coefficient (pH 6.0, WT DrOTOP1) | IC50 (pH 6.0, WT DrOTOP1) | other results |
| --- | --- | --- | --- | --- | --- | --- | --- | --- | --- | --- | --- | --- | --- | --- | --- | --- | --- | --- | --- | --- | --- |
| C=C(C)COc1ccccc1NC(=O)c1nc[nH]c1C [C2.2] | 57.3692% and 44.5762% and 37.4476% and 30.9804% and 33.0274% | 62.6907% and 69.8462% and 72.5518% and 60.5453% | 79.1499% and 75.7339% and 78.9474% | 89.6104% and 92.0062% | 98.8642% and 100.372% | 101.656% and 100.935% and 99.4036% | 99.9505% and 99.4475% and 98.9119% | 99.8351% and 99.4122% and 98.63% | 79.1% | 100% | 99.9% | 62.3% | 80.7% | 100% | 1.53 | 12.6 µM | 1.52 and 1.5 | 6.67 µM | 1.25 | 5.99 µM and 5.97 µM | Inhibition of currents (0.1 µM, pH 5.5, WT DrOTOP1, single cells): 2.61% and 0.5081% and 0.05491%; Inhibition of currents (0.3 µM, pH 5.5, WT DrOTOP1, single cells): 3.209% and 3.843%; Inhibition of currents (1 µM, pH 5, WT DrOTOP1, single cells): 3.034% and 6.744% and 2.835%; Inhibition of currents (1 µM, pH 5.5, WT DrOTOP1, single cells): 3.496% and 5.882% and 11.0667%; Inhibition of currents (1 µM, pH 6, WT DrOTOP1, single cells): 7.93% and 17.0523% and 15.485%; Inhibition of currents (3 µM, pH 5.5, WT DrOTOP1, single cells): 21.7626% and 20.6603%; Inhibition of currents (30 µM, pH 5.5, WT DrOTOP1, single cells): 91.4446% and 86.3672% and 87.3001% and 85.4679%; Inhibition of pH 5.5-induced currents, screen 2 (200 µM compound, HEK-293 cells expressing DrOTOP1, Vm -80 mV, values of single cells, FDA 1-3 = FDA-approved drugs): fully blocked; inhibition at 100 µM (HEK293, pH 5, 100 µM, pH 5, WT DrOTOP1, single cells): 99.1%; inhibition at 0.3 µM (HEK293, pH 5.5, 0.3 µM, pH 5.5, WT DrOTOP1, single cells): 2.64%; inhibition at 3 µM (HEK293, pH 5.5, 3 µM, pH 5.5, WT DrOTOP1, single cells): 17%; inhibition at 30 µM (HEK293, pH 5.5, 30 µM, pH 5.5, WT DrOTOP1, single cells): 88.3%; inhibition at 100 µM (HEK293, pH 5.5, 100 µM, pH 5.5, WT DrOTOP1, single cells): 99.4%; Mean, Fig 5N (WT + C2.2, n=8): 31.97; inhibition of acid-evoked current, mean (Mean 1) (WT DrOTOP1, Supp. Fig 5E stats): 99.31; inhibition of acid-evoked current, mean (Mean 1) (WT DrOTOP1, Supp. Fig 5F stats): 65.72 |
| O=C(/C(=N\O)c1ccccc1)c1ccccc1 [C11, benzil monoxime] | 4.424% and 3.103% | 7.181% and 5.566% and 5.627% | 24.2292% and 16.076% | 21.9002% and 19.6399% and 27.9569% | 50.6107% and 59.4827% and 56.6039% and 73.4375% | 58.9165% and 51.9948% and 54.7438% and 59.958% | 92.006% and 94.7798% and 86.5734% | 100.665% and 98.5727% and 97.2447% | 16.2% | 96.6% | 102% | 5.56% | 19% | 68.6% | 1.88 | 75.2 µM | 2.2 and 2.21 | 76 µM and 76.3 µM | 1.67 | 71.5 µM | Inhibition of currents (10 µM, pH 5.5, WT DrOTOP1, single cells or mean): 3.913% and 2.872% and 1.269% and 1.559%; Inhibition of pH 5.5-induced currents, screen 1 (200 µM compound, HEK-293 cells expressing DrOTOP1, Vm -80 mV, values of single cells): nearly fully inhibited; Inhibition of currents (200 µM, pH 5, WT DrOTOP1, single cells): 88.3451% and 83.853%; Inhibition of currents (200 µM, pH 6, WT DrOTOP1, single cells): 84.9844% and 81.9304% and 93.4599%; Inhibition of currents (300 µM, pH 5, WT DrOTOP1, single cells): 96.0707% and 96.7562%; Inhibition of currents (300 µM, pH 6, WT DrOTOP1, single cells): 97.5242% and 103.48%; inhibition at 10 µM (HEK293, pH 5, 10 µM, pH 5, WT DrOTOP1, single cells): 3.81%; inhibition at 200 µM (HEK293, pH 5, 200 µM, pH 5, WT DrOTOP1, single cells): 80.8%; inhibition at 300 µM (HEK293, pH 5, 300 µM, pH 5, WT DrOTOP1, single cells): 101%; inhibition at 200 µM (HEK293, pH 6, 200 µM, pH 6, WT DrOTOP1, single cells): 89.5%; inhibition at 300 µM (HEK293, pH 6, 300 µM, pH 6, WT DrOTOP1, single cells): 99.8% |
